In patent US5891909A, “Amidinohydrazones as protease inhibitors” (3-Dimensional Pharmaceuticals, Inc., priority 1997, dated 1999):
pKi: −log10 of the molar value. Where a name gives a salt, the structure may show the parent alone.

target: T1, human α-thrombin (Homo sapiens, UniProt P00734); experiment: Thrombin inhibition, Ki determination (hydrolysis of N-succinyl-Ala-Ala-Pro-Arg-p-nitroanilide); type: biochemical; conditions: Table 1; pH 7.5, 37° C.; read-out: Thrombin Ki
T1 construct: Human α-thrombin, human factor Xa and human plasmin were obtained from Enzyme Research Laboratories; purchased Enzyme Research Laboratories (South Bend, Ind.)
From the text: All buffer salts were obtained from Sigma Chemical Company (St. Louis, Mo.), and were of the highest purity available. The enzyme substrates, N-benzoyl-Phe-Val-Arg-p-nitroanilide (Sigma B7632), N-benzoyl-Ile-Glu-Gly-Arg-p-nitroanilide hydrochloride (Sigma B2291), N-p-Tosyl-Gly-Pro-Lys-p-nitroanilide (Sigma T6140), N-succinyl-Ala-Ala-Pro-Phe-p-nitroanilide (Sigma S7388) and N-CBZ-Val-Gly-Arg-p-nitroanilide (Sigma C7271) were obtained from Sigma.
Human α-thrombin, human factor Xa and human plasmin were obtained from Enzyme Research Laboratories (South Bend, Ind.). Bovine α-chymotrypsin (Sigma C4129), bovine trypsin (Sigma T8642) and human kidney cell urokinase (Sigma U5004) were obtained from Sigma. Human leukocyte elastase was obtained from Elastin Products (Pacific, Mo.).
All assays are based on the ability of the test compound to inhibit the enzyme catalyzed hydrolysis of a peptide p-nitroanilide substrate. […] The final concentrations for each of the substrates is listed below. In general, substrate concentrations are lower than the experimentally determined value for Km. Test compounds are prepared as a 1.0 mg/ml solution in DMSO. Dilutions are prepared in DMSO yielding 8 final concentrations encompassing a 200 fold concentration range. Enzyme solutions are prepared at the concentrations listed below in assay buffer.
Data corresponding to less than 10% of the total substrate hydrolysis were used in the calculations. The ratio of the velocity (rate of change in absorbance as a function of time) for a sample containing no test compound is divided by the velocity of a sample containing test compound, and is plotted as a function of test compound concentration. The data are fit to a linear regression, and the value of the slope of the line calculated. The inverse of the slope is the experimentally determined Ki value.
Thrombin activity was assessed as the ability to hydrolyze the substrate N-succinyl-Ala-Ala-Pro-Arg-p-nitroanilide.

pKi	Structure (SMILES)
7.60	Cc1cc(OCCC=NNC(=N)N)cc(OS(=O)(=O)c2cccc3cnccc23)c1 [Example 32, 2-[2-[3-(5-Isoquinolinylsulfonyloxy)-5-methylphenoxy]ethyl-1-methylene]hydrazinecarboximidamide nitrate]
7.53	Cc1cc(OCCC=NNC(=N)N)cc(OS(=O)(=O)c2cccc3nsnc23)c1 [Example 11, 2-[2-[3-(Benzo-2,1,3-thiadiazole-4-sulfonyloxy)-5-methylphenoxy]ethyl-1-methylene]hydrazinecarboximidamide nitrate]
6.53	COc1ccc(Cl)cc1S(=O)(=O)Oc1cc(C)cc(OCCC=NNC(=N)NN)c1 [Example 27, 2-Amino-[2-[2-[3-(5-chloro-2-methoxyphenylsulfonyloxy)-5-methylphenoxy]ethyl-1-methylene]hydrazine]carboximidamine acetate]
7.32	COc1ccc(C)cc1S(=O)(=O)Oc1cc(C)cc(OCCC=NNC(=N)N)c1 [Example 14, 2-[2-[3-(2-Methoxy-5-methylphenylsulfonyloxy)-5-methylphenoxy]ethyl-1-methylene]hydrazinecarboximidamide nitrate]
7.48	Cc1cc(OCCC=NNC(=N)N)cc(OS(=O)(=O)c2cc(C)ccc2C#N)c1 [Example 30, 2-[2-[3-(2-Cyano-5-methylphenylsulfonyloxy)-5-methylphenoxy]ethyl-1-methylene]hydrazinecarboximidamide nitrate]
8.08	Cc1cc(OCCC=NNC(=N)N)cc(OS(=O)(=O)c2ccccc2C(F)(F)F)c1 [Example 2, 2-[2-[5-Methyl-3-(2-trifluoromethylphenylsulfonyloxy)phenoxy]ethyl-1-methylene]hydrazinecarboximidamide nitrate]
8.03	COc1ccc(Br)cc1S(=O)(=O)Oc1cc(C)cc(OCCC=NNC(=N)N)c1 [Example 9, 2-[2-[3-(5-Bromo-2-methoxyphenylsulfonyloxy)-5-methylphenoxy]ethyl-1-methylene]hydrazinecarboximidamide nitrate]
7.85	Cc1cc(OCCC=NNC(=N)N)cc(OS(=O)(=O)c2ccccc2C#N)c1 [Example 13, 2-[2-[3-(2-Cyanophenylsulfonyloxy)-5-methylphenoxy]ethyl-1-methylene]hydrazinecarboximidamide hydrochloride]
8.33	COc1ccc(Cl)cc1S(=O)(=O)Oc1cc(C)cc(OCCC=NNC(=N)N)c1 [Example 18, 2-[2-[3-(5-Chloro-2-methoxyphenylsulfonyloxy)-5-methylphenoxy]ethyl-1-methylene]hydrazinecarboximidamide hydrochloride]
6.73	COc1ccc(Cl)cc1S(=O)(=O)Oc1cc(C)cc(OCCC=NN(N)C(=N)N)c1 [Example 28, 1-Amino-2-[2-[3-(5-chloro-2-methoxyphenylsulfonyloxy)-5-methylphenoxy]ethyl-1-methylene]hydrazinecarboximidamine acetate]
7.87	Cc1cc(OCCC=NNC(=N)N)cc(OS(=O)(=O)c2cccc(Cl)c2Cl)c1 [Example 6, 2-[2-[3-(2,3-Dichlorophenylsulfonyloxy)-5-methylphenoxy]ethyl-1-methylene]hydrazinecarboximidamide nitrate]
8.44	Cc1cc(OCCC=NNC(=N)N)cc(OS(=O)(=O)c2cccc(Cl)c2)c1 [Example 21, 2-[2-[3-(3-Chlorophenylsulfonyloxy)-5-methylphenoxy]ethyl-1-methylene]hydrazinecarboximidamide nitrate]
6.33	Cc1cc(OCCC=NNC(=N)N)cc(OCc2ccccc2C(F)(F)F)c1 [Example 3, 2-[2-[5-methyl-3-(2-trifluoromethylbenzyloxy)phenoxy]ethyl-1-methylene]hydrazinecarboximidamide nitrate]
7.83	Cc1cc(OCCC=NNC(=N)N)cc(OS(=O)(=O)c2cc(Cl)ccc2Cl)c1 [Example 7, 2-[2-[3-(2,5-Dichlorophenylsulfonyloxy)-5-methylphenoxy]ethyl-1-methylene]hydrazinecarboximidamide nitrate]
7.25	Cc1cc(OCCC=NNC(=N)N)cc(OS(=O)(=O)c2cccnc2)c1 [Example 34, 2-[2-[5-methyl-3-(3-pyridinylsulfonyloxy)phenoxy]ethyl-1-methylene]hydrazinecarboximidamide diacetate]
7.28	Cc1cc(OCC2(C=NNC(=N)N)CC2)cc(OS(=O)(=O)c2ccccc2C#N)c1 [Example 39, 2-[[1-[3-(2-Cyanophenylsulfonyloxy)-5-methylphenoxy]-methyl]cyclopropyl-1-methylene]hydrazinecarboximidamide acetate]

pKi	Structure (SMILES)
7.51	Cc1cc(OCCC=NNC(=N)N)cc(OS(=O)(=O)c2cccc(F)c2)c1 [Example 35, 2-[2-[3-(3-Fluorophenylsulfonyloxy)-5-methylphenoxy]ethyl-1-methylene]hydrazinecarboximidamide nitrate]
7.17	Cc1cc(OCCC=NNC(=N)N)cc(OS(=O)(=O)c2cccc(C#N)c2)c1 [Example 36, 2-[2-[3-(3-Cyanophenylsulfonyloxy)-5-methylphenoxy]ethyl-1-methylene]hydrazinecarboximidamide nitrate]
7.20	Cc1cc(OCCC=NNC(=N)N)cc(OS(=O)(=O)c2cccc3ccccc23)c1 [Example 25, 2-[2-[5-Methyl-3-(1-naphthalenylsulfonyloxy)phenoxy]ethyl-1-methylene]hydrazinecarboximidamide nitrate]
8.19	COc1ccccc1S(=O)(=O)Oc1cc(C)cc(OCCC=NNC(=N)N)c1 [Example 8, 2-[2-[3-(2-Methoxyphenylsulfonyloxy)-5-methylphenoxy]ethyl-1-methylene]hydrazinecarboximidamide acetate]
5.81	Cc1cc(OCCC=NNC(=N)N)cc(OS(=O)(=O)c2cc(C(F)(F)F)ccc2Cl)c1 [Example 26, 2-[2-[3-(2-Chloro-5-trifluoromethylphenylsulfonyloxy)-5-methylphenoxy]ethyl-1-methylene]hydrazinecarboximidamide nitrate]
5.90	COc1cc(CCCC=NNC(=N)N)cc(OS(=O)(=O)c2ccccc2Cl)c1 [Example 4, 2-[3-[3-(2-chlorophenylsulfonyloxy)-5-methoxyphenyl]propyl-1-methylene]hydrazinecarboximidamide hydrochloride]
7.12	Cc1cc(OCCC=NNC(=N)N)cc(OS(=O)(=O)c2c(C)nn(C)c2Cl)c1 [Example 20, 2-[2-[3-(5-chloro-1,3-dimethylpyrazole-4-sulfonyloxy)-5-methylphenoxy]ethyl-1-methylene]hydrazinecarboximidamide acetate]
7.20	Cc1cc(OCCC=NNC(=N)N)cc(OS(=O)(=O)c2cc([N+](=O)[O-])ccc2C)c1 [Example 22, 2-[2-[5-Methyl-3-(2-methyl-5-nitrophenylsulfonyloxy)phenoxy]ethyl-1-methylene]hydrazinecarboximidamide nitrate]
7.76	Cc1cc(OCCC=NNC(=N)N)cc(OS(=O)(=O)c2ccccc2OC(F)(F)F)c1 [Example 10, 2-[2-[5-Methyl-3-(2-trifluoromethoxyphenylsulfonyloxy)phenoxy]ethyl-1-methylene]hydrazinecarboximidamide nitrate]
7.87	Cc1cc(OCCC=NNC(=N)N)cc(OS(=O)(=O)c2cc(F)ccc2C)c1 [Example 24, 2-[2-[3-(5-Fluoro-2-methylphenylsulfonyloxy)-5-methylphenoxy]ethyl-1-methylene]hydrazinecarboximidamide nitrate]
5.78	COc1ccccc1S(=O)(=O)Oc1cc(C)cc(OCCCC=NNC(=N)N)c1 [Example 23, 2-[3-[3-(2-Methoxyphenylsulfonyloxy)-5-methylphenoxy]propyl-1-methylene]hydrazinecarboximidamide nitrate]
8.21	Cc1cc(OCCC=NNC(=N)N)cc(OS(=O)(=O)c2cc(C)ccc2C)c1 [Example 17, 2-[2-[3-(2,5-Dimethylphenylsulfonyloxy)-5-methylphenoxy]ethyl-1-methylene]hydrazinecarboximidamide nitrate]
8.05	Cc1cc(OCCC=NNC(=N)N)cc(OS(=O)(=O)c2cccc(C)c2)c1 [Example 12, 2-[2-[5-Methyl-3-(3-methylphenylsulfonyloxy)phenoxy]ethyl-1-methylene]hydrazinecarboximidamide nitrate]
7.67	COc1ccc(OC)c(S(=O)(=O)Oc2cc(C)cc(OCCC=NNC(=N)N)c2)c1 [Example 16, 2-[2-[3-(2,5-Dimethoxyphenylsulfonyloxy)-5-methylphenoxy]ethyl-1-methylene]hydrazinecarboximidamide nitrate]
7.16	Cc1cc(OCCC=NNC(=N)N)cc(N(CCCCc2ccccc2)S(=O)(=O)c2ccccc2C(F)(F)F)c1 [Example 31, 2-[2-[(3-Methyl-5-(N-(4-phenylbutyl)-N-(2-trifluoromethylphenylsulfonyl))amino)phenoxy]ethyl-1-methylene]hydrazinecarboximidamide acetate]
